6 compounds from ChEMBL document CHEMBL5465560, “Selectivity Literature for EUbOPEN Chemogenomic Library” (2024) can be followed below.

The target of assay [1] is Receptor-interacting serine/threonine-protein kinase 2 (Homo sapiens, UniProt O43353). Description: Selectivity interaction (KinomeScan (DiscoverX)) EUB0000229b RIPK2. The settings on record: at 10 µM.
For assay [2], the target named is Rho-associated protein kinase 1 (Homo sapiens) (UniProt Q13464). Description: Selectivity interaction (KinomeScan (DiscoverX)) EUB0000229b ROCK1. The settings on record: at 10 µM.
Sequence of Rho-associated protein kinase 1 (Homo sapiens) (Q13464 2-1354 limits assumed): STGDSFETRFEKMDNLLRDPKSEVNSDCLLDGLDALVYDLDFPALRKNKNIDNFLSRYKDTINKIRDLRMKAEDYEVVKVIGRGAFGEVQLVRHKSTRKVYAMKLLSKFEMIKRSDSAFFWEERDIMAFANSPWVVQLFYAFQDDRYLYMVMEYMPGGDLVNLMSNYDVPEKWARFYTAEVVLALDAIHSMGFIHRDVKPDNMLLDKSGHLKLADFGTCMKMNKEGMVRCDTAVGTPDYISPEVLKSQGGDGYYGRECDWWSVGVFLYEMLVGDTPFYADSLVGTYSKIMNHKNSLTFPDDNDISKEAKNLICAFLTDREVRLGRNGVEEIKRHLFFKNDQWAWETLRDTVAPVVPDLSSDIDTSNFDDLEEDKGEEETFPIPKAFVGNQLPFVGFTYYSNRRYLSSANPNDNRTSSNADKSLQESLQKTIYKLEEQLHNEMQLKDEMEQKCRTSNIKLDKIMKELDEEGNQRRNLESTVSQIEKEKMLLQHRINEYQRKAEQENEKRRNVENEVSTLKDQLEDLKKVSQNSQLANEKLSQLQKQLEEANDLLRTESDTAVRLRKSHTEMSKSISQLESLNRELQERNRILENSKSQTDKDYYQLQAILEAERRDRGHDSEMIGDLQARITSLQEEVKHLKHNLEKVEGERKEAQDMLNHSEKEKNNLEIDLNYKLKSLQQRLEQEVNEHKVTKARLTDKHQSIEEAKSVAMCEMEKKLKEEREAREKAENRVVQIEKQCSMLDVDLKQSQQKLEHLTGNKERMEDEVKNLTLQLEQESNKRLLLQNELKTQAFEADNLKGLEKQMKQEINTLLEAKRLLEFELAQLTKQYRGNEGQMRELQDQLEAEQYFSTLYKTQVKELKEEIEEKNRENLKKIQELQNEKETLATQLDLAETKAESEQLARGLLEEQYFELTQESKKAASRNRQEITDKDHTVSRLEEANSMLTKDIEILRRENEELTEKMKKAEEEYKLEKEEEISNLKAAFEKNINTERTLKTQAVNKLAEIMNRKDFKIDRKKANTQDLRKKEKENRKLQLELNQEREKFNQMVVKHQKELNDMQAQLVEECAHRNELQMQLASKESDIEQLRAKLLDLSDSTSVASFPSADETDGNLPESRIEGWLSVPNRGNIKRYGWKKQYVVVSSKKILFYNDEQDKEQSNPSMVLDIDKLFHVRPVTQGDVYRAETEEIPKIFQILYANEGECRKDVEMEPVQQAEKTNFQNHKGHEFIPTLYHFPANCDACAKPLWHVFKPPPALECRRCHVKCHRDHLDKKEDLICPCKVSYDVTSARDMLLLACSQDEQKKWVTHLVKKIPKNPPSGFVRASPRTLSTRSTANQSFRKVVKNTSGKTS
Assay [3] addresses Serine/threonine-protein kinase PLK2 (Homo sapiens, UniProt Q9NYY3). Description: Selectivity interaction (KinomeScan (DiscoverX)) EUB0001619a PLK2. The settings on record: at 1 µM.
Assay [4] addresses T1, Dual specificity tyrosine-phosphorylation-regulated kinase 4 (Homo sapiens) (UniProt Q9NR20).
T1 sequence (whole entry): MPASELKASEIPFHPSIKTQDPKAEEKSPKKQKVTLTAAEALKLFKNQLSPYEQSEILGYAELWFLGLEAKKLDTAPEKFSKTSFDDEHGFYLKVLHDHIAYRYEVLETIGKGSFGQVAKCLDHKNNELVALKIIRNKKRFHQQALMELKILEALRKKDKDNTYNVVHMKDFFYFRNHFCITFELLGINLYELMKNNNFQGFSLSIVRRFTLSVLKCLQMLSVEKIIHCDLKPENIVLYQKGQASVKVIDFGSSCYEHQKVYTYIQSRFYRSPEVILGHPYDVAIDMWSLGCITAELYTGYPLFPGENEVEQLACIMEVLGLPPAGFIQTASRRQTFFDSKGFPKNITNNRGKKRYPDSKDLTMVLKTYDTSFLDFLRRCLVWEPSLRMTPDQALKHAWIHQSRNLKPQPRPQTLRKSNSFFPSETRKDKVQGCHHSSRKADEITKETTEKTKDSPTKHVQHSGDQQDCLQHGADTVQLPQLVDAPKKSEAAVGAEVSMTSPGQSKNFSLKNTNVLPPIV
Description: Selectivity interaction (Kinase panel (Invitrogen)) EUB0000639a DYRK4. To be noted: at 200 nM.

Assay [5] concerns the target Serine/threonine-protein kinase OSR1 (Homo sapiens) (UniProt O95747). Description: Selectivity interaction (KinomeScan (DiscoverX)) EUB0000092b OXSR1. To be noted: at 10 µM.
The target of assay [6] is Myosin-IIIa (Homo sapiens) (UniProt Q8NEV4). Nature of the assay: Selectivity interaction (KinomeScan (DiscoverX)) EUB0000618a MYO3A. To be noted: at 10 µM.
Sequence of Myosin-IIIa (Homo sapiens) (Q8NEV4 whole entry): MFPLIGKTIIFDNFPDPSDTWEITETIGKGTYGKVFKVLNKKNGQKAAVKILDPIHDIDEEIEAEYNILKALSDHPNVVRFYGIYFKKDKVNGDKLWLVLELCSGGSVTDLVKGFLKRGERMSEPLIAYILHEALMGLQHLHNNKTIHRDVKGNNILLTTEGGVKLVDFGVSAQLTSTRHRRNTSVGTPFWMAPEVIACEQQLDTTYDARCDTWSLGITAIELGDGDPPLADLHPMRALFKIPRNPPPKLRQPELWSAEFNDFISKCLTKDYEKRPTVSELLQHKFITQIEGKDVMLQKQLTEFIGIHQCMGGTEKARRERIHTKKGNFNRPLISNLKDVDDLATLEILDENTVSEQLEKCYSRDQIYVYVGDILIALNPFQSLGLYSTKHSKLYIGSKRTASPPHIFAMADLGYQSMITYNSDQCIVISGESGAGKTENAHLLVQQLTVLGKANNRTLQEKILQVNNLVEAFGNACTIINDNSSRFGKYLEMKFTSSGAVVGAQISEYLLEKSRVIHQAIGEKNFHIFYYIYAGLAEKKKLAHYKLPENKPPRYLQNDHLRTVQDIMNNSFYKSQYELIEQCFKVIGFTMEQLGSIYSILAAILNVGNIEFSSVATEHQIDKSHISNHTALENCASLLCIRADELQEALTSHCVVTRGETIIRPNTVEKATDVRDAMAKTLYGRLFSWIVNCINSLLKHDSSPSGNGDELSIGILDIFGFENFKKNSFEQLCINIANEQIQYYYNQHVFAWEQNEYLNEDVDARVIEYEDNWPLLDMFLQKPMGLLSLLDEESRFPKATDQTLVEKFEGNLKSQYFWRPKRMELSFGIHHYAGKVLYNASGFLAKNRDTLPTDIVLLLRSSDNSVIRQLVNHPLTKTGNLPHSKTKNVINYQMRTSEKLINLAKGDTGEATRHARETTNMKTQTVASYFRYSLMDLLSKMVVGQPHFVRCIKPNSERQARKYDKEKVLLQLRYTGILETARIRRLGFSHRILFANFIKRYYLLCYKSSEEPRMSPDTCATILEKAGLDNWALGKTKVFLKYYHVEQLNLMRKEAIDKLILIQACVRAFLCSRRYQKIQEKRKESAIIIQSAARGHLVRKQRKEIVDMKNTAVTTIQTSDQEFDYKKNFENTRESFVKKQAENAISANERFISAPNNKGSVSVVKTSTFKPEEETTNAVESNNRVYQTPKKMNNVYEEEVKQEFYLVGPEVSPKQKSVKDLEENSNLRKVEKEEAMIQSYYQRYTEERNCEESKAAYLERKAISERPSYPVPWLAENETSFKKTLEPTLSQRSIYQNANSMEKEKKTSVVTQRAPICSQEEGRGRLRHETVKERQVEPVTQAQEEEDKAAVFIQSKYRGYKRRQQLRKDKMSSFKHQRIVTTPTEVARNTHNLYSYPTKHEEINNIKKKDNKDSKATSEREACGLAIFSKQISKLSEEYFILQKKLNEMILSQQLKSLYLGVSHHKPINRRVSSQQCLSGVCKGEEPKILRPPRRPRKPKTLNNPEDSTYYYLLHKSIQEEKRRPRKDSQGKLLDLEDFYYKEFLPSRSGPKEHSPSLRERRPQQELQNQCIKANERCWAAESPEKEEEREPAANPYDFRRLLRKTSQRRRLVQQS
The target of assay [7] is T2, Serine/threonine-protein kinase Sgk3 (Homo sapiens) (UniProt Q96BR1).
T2 sequence (whole entry): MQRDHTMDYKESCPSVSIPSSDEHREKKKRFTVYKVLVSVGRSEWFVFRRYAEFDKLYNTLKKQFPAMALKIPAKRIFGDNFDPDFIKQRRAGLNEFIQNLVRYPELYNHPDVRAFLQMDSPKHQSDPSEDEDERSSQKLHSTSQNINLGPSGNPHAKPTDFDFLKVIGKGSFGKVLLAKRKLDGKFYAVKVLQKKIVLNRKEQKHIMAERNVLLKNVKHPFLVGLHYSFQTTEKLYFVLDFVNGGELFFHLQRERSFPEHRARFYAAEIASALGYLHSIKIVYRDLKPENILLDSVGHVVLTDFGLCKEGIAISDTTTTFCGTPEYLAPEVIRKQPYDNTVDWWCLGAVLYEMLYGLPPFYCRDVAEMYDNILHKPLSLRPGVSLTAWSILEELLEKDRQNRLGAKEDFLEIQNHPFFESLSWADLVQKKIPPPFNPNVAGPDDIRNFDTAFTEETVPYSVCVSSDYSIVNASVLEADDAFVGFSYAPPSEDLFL
Nature of the assay: Selectivity interaction (KinomeScan (DiscoverX)) EUB0000595a SGK3. The settings on record: at 10 µM.

Assay [8] addresses T3, Serine/threonine-protein kinase D1 (Homo sapiens) (UniProt Q15139).
T3 sequence (whole entry): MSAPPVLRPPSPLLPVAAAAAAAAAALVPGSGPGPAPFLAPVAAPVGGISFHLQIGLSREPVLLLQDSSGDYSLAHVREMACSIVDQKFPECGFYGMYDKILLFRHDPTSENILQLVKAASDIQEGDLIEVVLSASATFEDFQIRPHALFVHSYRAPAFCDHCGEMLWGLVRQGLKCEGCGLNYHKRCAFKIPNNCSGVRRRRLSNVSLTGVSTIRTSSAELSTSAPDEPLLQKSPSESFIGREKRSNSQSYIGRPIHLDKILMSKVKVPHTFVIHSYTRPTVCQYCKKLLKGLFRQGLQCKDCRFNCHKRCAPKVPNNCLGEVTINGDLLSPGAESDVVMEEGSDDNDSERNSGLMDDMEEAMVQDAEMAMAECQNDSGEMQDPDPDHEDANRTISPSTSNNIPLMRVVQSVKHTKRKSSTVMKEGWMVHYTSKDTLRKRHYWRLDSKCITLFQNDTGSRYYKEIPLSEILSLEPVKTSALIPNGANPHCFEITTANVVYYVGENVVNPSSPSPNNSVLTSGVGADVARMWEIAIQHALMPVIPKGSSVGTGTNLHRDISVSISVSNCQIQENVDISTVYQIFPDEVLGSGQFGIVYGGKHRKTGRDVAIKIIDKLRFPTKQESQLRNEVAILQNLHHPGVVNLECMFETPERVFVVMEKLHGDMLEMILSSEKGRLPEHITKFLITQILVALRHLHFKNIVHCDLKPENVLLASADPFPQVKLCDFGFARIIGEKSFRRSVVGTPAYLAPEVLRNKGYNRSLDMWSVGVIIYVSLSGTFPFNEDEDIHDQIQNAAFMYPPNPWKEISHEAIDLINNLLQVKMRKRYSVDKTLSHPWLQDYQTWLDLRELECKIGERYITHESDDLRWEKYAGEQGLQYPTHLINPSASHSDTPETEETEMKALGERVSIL
The settings on record: at 10 µM.

SMILES strings stand for the structures.

Sequence of Receptor-interacting serine/threonine-protein kinase 2 (O43353 whole entry): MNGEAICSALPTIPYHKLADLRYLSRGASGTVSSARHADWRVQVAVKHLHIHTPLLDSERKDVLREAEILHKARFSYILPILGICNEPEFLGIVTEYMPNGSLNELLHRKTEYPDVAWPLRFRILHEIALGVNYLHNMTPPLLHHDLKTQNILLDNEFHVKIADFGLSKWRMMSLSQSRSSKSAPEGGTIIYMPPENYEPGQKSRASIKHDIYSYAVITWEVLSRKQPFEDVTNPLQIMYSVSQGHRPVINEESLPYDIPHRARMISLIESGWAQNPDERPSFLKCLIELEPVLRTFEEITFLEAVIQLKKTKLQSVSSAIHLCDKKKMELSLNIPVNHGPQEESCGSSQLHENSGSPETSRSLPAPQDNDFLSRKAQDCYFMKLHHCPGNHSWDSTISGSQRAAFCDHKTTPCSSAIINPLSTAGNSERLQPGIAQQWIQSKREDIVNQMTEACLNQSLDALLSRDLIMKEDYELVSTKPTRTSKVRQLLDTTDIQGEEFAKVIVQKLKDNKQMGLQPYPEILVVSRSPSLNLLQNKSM
Sequence of Serine/threonine-protein kinase OSR1 (Homo sapiens) (O95747 2-527 limits assumed): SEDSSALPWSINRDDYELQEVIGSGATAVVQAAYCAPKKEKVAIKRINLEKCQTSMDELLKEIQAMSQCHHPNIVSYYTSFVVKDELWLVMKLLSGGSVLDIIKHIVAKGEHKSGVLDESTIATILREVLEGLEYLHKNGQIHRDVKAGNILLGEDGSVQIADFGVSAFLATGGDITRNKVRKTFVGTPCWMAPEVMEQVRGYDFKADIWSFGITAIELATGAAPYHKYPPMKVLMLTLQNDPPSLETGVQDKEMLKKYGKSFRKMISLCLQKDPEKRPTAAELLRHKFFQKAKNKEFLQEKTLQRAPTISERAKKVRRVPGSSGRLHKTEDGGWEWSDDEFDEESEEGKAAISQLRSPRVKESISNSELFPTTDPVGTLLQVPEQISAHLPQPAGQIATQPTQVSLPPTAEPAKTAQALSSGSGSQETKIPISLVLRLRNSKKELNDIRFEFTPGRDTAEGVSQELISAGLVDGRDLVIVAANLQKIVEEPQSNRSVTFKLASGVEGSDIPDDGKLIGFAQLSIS
Sequence of Serine/threonine-protein kinase PLK2 (Q9NYY3 whole entry, looked up): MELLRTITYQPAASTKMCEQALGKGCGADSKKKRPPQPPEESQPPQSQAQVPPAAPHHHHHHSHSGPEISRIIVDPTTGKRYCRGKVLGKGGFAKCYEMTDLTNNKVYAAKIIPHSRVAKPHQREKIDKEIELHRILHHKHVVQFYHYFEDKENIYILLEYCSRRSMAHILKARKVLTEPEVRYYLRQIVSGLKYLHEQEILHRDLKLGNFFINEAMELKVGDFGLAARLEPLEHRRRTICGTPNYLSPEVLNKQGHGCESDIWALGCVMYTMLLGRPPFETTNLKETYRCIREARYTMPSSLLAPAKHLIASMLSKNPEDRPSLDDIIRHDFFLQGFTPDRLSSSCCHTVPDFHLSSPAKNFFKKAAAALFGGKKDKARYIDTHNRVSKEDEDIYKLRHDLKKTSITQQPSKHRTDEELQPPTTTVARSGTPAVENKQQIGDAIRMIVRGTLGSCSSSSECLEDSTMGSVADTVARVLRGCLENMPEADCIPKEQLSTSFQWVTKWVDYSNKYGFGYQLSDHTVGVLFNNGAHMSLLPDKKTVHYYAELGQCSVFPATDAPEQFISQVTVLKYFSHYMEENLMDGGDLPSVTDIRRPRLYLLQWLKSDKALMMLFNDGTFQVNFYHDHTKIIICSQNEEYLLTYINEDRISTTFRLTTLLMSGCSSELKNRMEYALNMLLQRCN

On to `COc1cc(N(C)c2ccnc3ccc(C(F)(F)F)cc23)cc(OC)c1OC`, for which the % binding in assay [1] was found to be 58%; in assay [2], 78%. Regarding `N#Cc1cccc(-c2c[nH]c3ncnc(N4CCOCC4)c23)c1`, the % of control in assay [3] is 100%. `CC[C@@H]1[C@H](F)C(=O)N[C@@H]1COc1nccc2cc(C(N)=O)c(OC)cc12` [ZIMLOVISERTIB] gave a % of inhibition in assay [4] of 5.52%. In assay [5], `CCC(=O)N1CCN(c2ccc(-n3c(=O)ccc4cnc5ccc(-c6cnc7ccccc7c6)cc5c43)cc2C(F)(F)F)CC1` displayed a % of control of 100%. Consider `O[C@H]1CC[C@H](Nc2ncc3nc(Nc4c(F)cc(F)cc4F)n([C@H]4CCOC4)c3n2)CC1`, for which the % of control in assay [6] is 100%.

Consider `COCC(=O)NC/C=C/c1ccc2ncnc(Nc3ccc(Oc4ccc(C)nc4)c(C)c3)c2c1` [CP-724714], for which the % of control in assay [7] is 100%; in assay [8], 85%.
